Source: patent US20110207751A1, “HETEROCYCLIC COMPOUNDS AND USES AS ANTICANCER AGENTS” (priority 2010, published 2011)
Where a name gives a salt, the structure may show the parent alone. Read-outs that look alike come from different tables or passages of the source.

Legend:
[1] = test system: SKOV3 cells (human ovarian cancer cell line); assay: Inhibition of cell proliferation, xCelligence cell index; format: cell-based; details: SK-OV-3, 72 hr post compound treatment, read-out: calculated IC50
Excerpt: The biological activity of compounds disclosed herein was monitored and profiled using the Real-Time Cell Electronic Sensing (RT-CES®) system from ACEA Biosciences, Inc. The RT-CES system utilizes cell-substrate impedance technology to monitor cellular behavior inside tissue culture wells in a microtiter plate format. The technology features in the integration of molecular and cell biology with microelectronics and is based on the electronic detection of biological assay process. […]
For measurement of cell-substrate or cell-electrode impedance using RT-CES technology, microelectrodes having appropriate geometries are fabricated onto the bottom surfaces of microtiter plate or similar device, facing into the wells. […] When there are changes to the biological status of the cells analogue electronic readout signals are measured automatically and in real time, and are converted to digital signals for processing and for analysis. In a RT-CES system, a cell index (arbitrary representation of change in impedance) is automatically derived and provided based on measured electrode impedance values. […]
To quantify cell status based on the measured cell-electrode impedance, a parameter termed Cell Index is derived. Cell Index is a quantitative measure of the status of the cells in an electrode-containing well. […]

[2] = test system: A549 human lung cancer cells; assay: Mitotic arrest, phosphohistone H3 staining (mitotic index); format: cell-based; details: 33 nM
Excerpt: Microtubules are extremely important in the process of mitosis, during which the duplicated chromosomes of a cell are separated into two identical sets before cleavage of the cell into two daughter cells. Compounds which target microtubules such as paclitaxel and vinblastine suppress the microtubule dynamics and block the process of mitosis. As consequence, cells will be arrested at G2/M phase. To test if COMPOUND O influences the process of mitosis in cancer cell dividing, A549 human lung cancer cells were treated with 33 nM of COMPOUND O and paclitaxel, or 0.2% DMSO that served as negative control. The treated cells were stained with an antibody against phosphohistone H3, a marker for cells undergoing mitosis and mitotic arrest. […] It was 44±8%, 45±3% and 3±1% for paclitaxel, COMPOUND O and DMSO treated A549, respectively.

[3] = test system: KB200 cells over-expressing multiple drug resistant (MDR) gene; assay: Inhibition of cell proliferation, xCelligence cell index; format: cell-based; details: Homo sapiens
Description: For measurement of cell-substrate or cell-electrode impedance using RT-CES technology, microelectrodes having appropriate geometries are fabricated onto the bottom surfaces of microtiter plate or similar device, facing into the wells. Cells are introduced into the wells of the devices, and make contact to and attach to the electrode surfaces. The presence, absence or change of properties of cells affects the electronic and ionic passage on the electrode sensor surfaces. Measuring the impedance between or among electrodes provides important information about biological status of cells present on the sensors. When there are changes to the biological status of the cells analogue electronic readout signals are measured automatically and in real time, and are converted to digital signals for processing and for analysis. In a RT-CES system, a cell index (arbitrary representation of change in impedance) is automatically derived and provided based on measured electrode impedance values. The cell index obtained for a given well reflects: 1) how many cells are attached to the electrode surfaces in this well; 2) how well cells are attached to the electrode surfaces in this well. Thus, the more the cells of same type in similar physiological conditions attach the electrode surfaces, the larger the cell index. And, the better the cells attach to the electrode surfaces (e.g., the cells spread-out more to have larger contact areas, or the cells attach tighter to electrode surfaces), the larger the cell index.
To quantify cell status based on the measured cell-electrode impedance, a parameter termed Cell Index is derived. Cell Index is a quantitative measure of the status of the cells in an electrode-containing well. Under the same physiological conditions, more cells attached on to the electrodes leads to larger cell-electrode resistance value, leading to a larger value for Cell Index. Furthermore, for the same number of cells present in the well, a change in the cell status such as morphology will lead to a change in the Cell Index. […]
The efficacy of these compounds was also tested against KB200 cell over-expressing multiple drug resistant (MDR) gene. […] The cell status was monitored prior to and after the compound addition using xCelligence system (Roche). […]

[4] = test system: MKN45 human gastric-intestinal cancer xenograft; assay: In vivo antitumor efficacy, MKN45 xenograft; parameters: species or system BALB/c immunodeficient nude mice; details: for Tumor inhibition rate %: by tumor weight
Description: To evaluate the in vivo anticancer efficacy of COMPOUND O, MKN45 human gastric-intestinal cancer xenograft models in immunodeficient nude mice was tested. All the mouse models are maintained in the Pharmacology Lab of ACEA Bio (Hangzhou) CO., Ltd. The BALB/c immunodeficient nude mice were purchased from Shanghai SLAC Laboratory Animal, certification number: SCXKA (Shanghai) 2007-0005. The mouse weight was 19±1 g. Only female mice were used in this study. The numbers of animals tested were as follow: 7 for each dose group, 7 for positive control group and 7 for negative control group.
Test Control. For negative control, each mouse was administered orally with the solvent only having the same volume and same concentration as those used in COMPOUND O test, 120 mg/kg once every other day (qod) for 18 days. […]
Preparation an Administration of Test Compounds. COMPOUND O was dissolved in 25% phospholipid (S75) and 75% polyvinylpyrrolidone (PL-PVP) then further diluted to 8 mg/ml in 0.9% NaCl aqueous solution. Different dosages of COMPOUND O between 120 mg/kg qod (once every other day) and 160 mg/kg q3d (once every 3 days) were used in the study.
Preparation of tumor cells for transplantation and determination of compound efficacy. To prepare the tumor cells for MKN45 human gastric-intestinal cancer xenograft model, the fast grown tumors were first removed from the transplanted tumor mice, the tumor tissues were dissected to 1-2 mm^3 in dimension. These micro-tumors were then subcutaneously injected into the auxiliary region (right-side) of each mouse. After the inoculated tumors grew to a certain size (60-80 mm^3) in the nude mice, the mice were randomized into different dosing groups and subjected to compound treatment. Between 2-3 weeks after the first dosing, mice were sacrificed and the transplanted tumors were removed from experimental mice. Each removed solid tumor was weighed; the tumor inhibition rate in each dosage group was calculated according to the formula:
Tumor inhibition rate %=(average weight of tumor in the negative control group−average weight of tumor in the compound treated group)/average weight of tumor in the negative control group×100 (1)
All used materials including animal food, animal cage, supporting materials and apparatus contacted by animals, were high-pressure sterilized. Nude mice were maintained in laminar flow shelves under SPF condition. After tumor transplantation, mouse weight and tumor size in each compound dosage group were dynamically monitored and plotted. The tumor size was determined by measuring the major axis (a) and minor axis (b) of the tumor, and tumor volume was calculated according to the formula: […]

[5] = 72 hr post compound treatment, read-out: calculated IC50

SMILES | IC50 [1] [nM] | mitotic index [2] [%] | IC50 [3, 5] [nM] | TV inhibition rate % T/C ([4]; 120 mg/kg ig × 9 qod) [%] | Tumor volume (mm^3) End ([4]; 120 mg/kg ig × 9 qod) [mm^3] | Tumor volume (mm^3) Start ([4]; 120 mg/kg ig × 9 qod) [mm^3] | Tumor weight (g) x ± SD ([4]; 120 mg/kg ig × 9 qod) [g] | Tumor inhibition rate % ([4]; 120 mg/kg ig × 9 qod) [%] | TV inhibition rate % T/C ([4]; 160 mg/kg ig × 6 q3d) [%] | Tumor volume (mm^3) End ([4]; 160 mg/kg ig × 6 q3d) [mm^3] | Tumor volume (mm^3) Start ([4]; 160 mg/kg ig × 6 q3d) [mm^3] | Tumor weight (g) x ± SD ([4]; 160 mg/kg ig × 6 q3d) [g] | Tumor inhibition rate % ([4]; 160 mg/kg ig × 6 q3d) [%] | TV inhibition rate % T/C ([4]; 50 mg/kg ig × 6 q3d) [%] | Tumor volume (mm^3) End ([4]; 50 mg/kg ig × 6 q3d) [mm^3] | Tumor volume (mm^3) Start ([4]; 50 mg/kg ig × 6 q3d) [mm^3] | Tumor weight (g) x ± SD ([4]; 50 mg/kg ig × 6 q3d) [g] | Tumor inhibition rate % ([4]; 50 mg/kg ig × 6 q3d) [%] | IC50 ([3]; read-out: IC50) [nM]
CCc1ccc(Nc2nc(-c3c(C)nc4sccn34)cs2)cc1 [COMPOUND O, 2-(4-ethylphenyl)amino-4-(6-methylimidazo[2,1-b]thiazol-5-yl)-thiazole monohydrobromide] | 5.47 | 45±3 | 9.84 | 44.1 | 905 ± 403 | 69.58 ± 11 | 0.835 ± 0.41 | 58.0 | 45.3 | 904 ± 347 | 67.75 ± 25 | 0.881 ± 0.467 | 55.7 |  |  |  |  |  | 
COc1cc([C@@H]2c3cc4c(cc3[C@@H](O[C@@H]3O[C@@H]5CO[C@@H](C)O[C@H]5[C@H](O)[C@H]3O)[C@H]3COC(=O)[C@H]23)OCO4)cc(OC)c1O [Etoposide, reference compound] |  |  |  |  |  |  |  |  |  |  |  |  |  | 56.9 | 1164 ± 483 | 69.46 ± 16 | 1.024 ± 0.345 | 48.4 | 
CC(=O)O[C@H]1C(=O)[C@@]2(C)[C@H]([C@H](OC(=O)c3ccccc3)[C@]3(O)C[C@H](OC(=O)[C@H](O)[C@@H](NC(=O)c4ccccc4)c4ccccc4)C(C)=C1C3(C)C)[C@]1(OC(C)=O)CO[C@@H]1C[C@@H]2O [paclitaxel] | 5.34 | 44±8 | > 1000 |  |  |  |  |  |  |  |  |  |  |  |  |  |  |  | > 1000
